Experiments:
CDK9/Cyclin T1 = CDK9/Cyclin T1 (Homo sapiens (Human), UniProt P50750); test: CDK9 enzyme assay (LANCE ULight TR-FRET kinase assay); format: biochemical; settings: 1000 μM ATP, 100 nM ULight MBP, kinase reaction 1 hour
Method in brief: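 Human CDK9/Cyclin T1 phosphorylating 100 nM ULight-MBP with 1000 μM ATP in HEPES/MgCl2 buffer, 1 h reaction. Stopped with 20 mM EDTA plus 0.5 nM Eu anti-phospho-MBP antibody, incubated 1 h, read by TR-FRET (ex 320 nm, em 615/665 nm).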

H929 cells = test: Cell viability assay (Cell TiterGlo); format: cell-based; settings: Homo sapiens, NCI-H929, 24 hours at 37° C., Cell TiterGlo luminescence
Procedure: The cell viability assay was performed using H929 cells. Cells were seeded in 96-well plates at 10,000 cells/well and, after overnight incubation, treated with compounds in a dose response of 3-fold dilutions from 10 μM to 0.005 μM ([…], 0.1% final DMSO concentration). After 24 hours at 37° C., cell viability was measured using Cell TiterGlo reagent (Promega) with a luminescence reader.

Chain of CDK9/Cyclin T1 (P50750 whole entry): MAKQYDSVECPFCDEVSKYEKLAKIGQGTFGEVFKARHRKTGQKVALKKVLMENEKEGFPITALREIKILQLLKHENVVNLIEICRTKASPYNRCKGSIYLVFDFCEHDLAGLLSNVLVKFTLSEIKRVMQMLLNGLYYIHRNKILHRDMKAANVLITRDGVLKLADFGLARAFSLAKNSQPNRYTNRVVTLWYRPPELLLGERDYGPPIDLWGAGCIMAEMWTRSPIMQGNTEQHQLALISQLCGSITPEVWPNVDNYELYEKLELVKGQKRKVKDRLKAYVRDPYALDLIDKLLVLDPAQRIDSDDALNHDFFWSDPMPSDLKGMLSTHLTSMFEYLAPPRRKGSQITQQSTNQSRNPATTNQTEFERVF
Chain of CDK9/Cyclin T1 (O60563 whole entry partner): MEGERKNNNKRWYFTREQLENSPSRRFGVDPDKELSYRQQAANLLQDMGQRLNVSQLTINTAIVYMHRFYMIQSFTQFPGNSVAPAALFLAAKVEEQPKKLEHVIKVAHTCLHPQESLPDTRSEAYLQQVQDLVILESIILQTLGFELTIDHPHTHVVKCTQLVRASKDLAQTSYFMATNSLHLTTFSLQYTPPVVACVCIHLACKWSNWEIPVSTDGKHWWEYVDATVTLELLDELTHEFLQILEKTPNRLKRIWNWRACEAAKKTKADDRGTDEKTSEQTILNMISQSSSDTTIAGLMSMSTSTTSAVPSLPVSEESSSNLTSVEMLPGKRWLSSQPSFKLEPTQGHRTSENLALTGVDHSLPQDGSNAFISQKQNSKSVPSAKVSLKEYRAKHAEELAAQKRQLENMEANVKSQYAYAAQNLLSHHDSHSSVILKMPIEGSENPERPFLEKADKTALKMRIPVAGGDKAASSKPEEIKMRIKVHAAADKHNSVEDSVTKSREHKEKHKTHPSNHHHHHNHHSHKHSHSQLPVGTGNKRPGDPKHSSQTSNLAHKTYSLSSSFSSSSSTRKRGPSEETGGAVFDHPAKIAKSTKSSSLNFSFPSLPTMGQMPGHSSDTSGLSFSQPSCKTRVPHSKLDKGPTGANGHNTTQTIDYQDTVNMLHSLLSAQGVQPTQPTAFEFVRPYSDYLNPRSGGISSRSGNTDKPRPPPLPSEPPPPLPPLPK

Compound | IC50 (CDK9/Cyclin T1) [nM] | IC50 (H929 cells) [nM]
CN1Cc2c(C3=CCNCC3)[nH]c3nccc(c23)-c2ccccc21 [Example 158, 7-methyl-5-(1,2,3,6-tetrahydropyridin-4-yl)-6,7-dihydro-4H-3,4,7-triazadibenzo[cd,f]azulene] | 96 | 20
CN1Cc2c(C3=C[C@H](CO)NCC3)[nH]c3nccc(c23)-c2cc(F)c(F)cc21 [Example 126, [(2R)-4-(9,10-difluoro-7-methyl-6,7-dihydro-4H-3,4,7-triazadibenzo[cd,f]azulen-5-yl)-1,2,5,6-tetrahydropyridin-2-yl]methanol] | 58 | 39
CN1Cc2c(C3=C[C@H]4CC[C@@H](C3)N4CC(=O)N3CCC[C@H]3CO)[nH]c3nccc(c23)-c2cc(F)ccc21 [Example 79, 2-[(1R,5S)-3-(10-fluoro-7-methyl-6,7-dihydro-4H-3,4,7-triazadibenzo[cd,f]azulen-5-yl)-8-azabicyclo[3.2.1]oct-2-en-8-yl]-1-[(2S)-2-(hydroxymethyl)pyrrolidin-1-yl]ethanone] | 72 | 49
CNC(=O)C1CC=C(c2[nH]c3nccc4c3c2CN(C)c2ccc(F)cc2-4)CC1 (stereo not shown) [Example 52, 4-(10-fluoro-7-methyl-6,7-dihydro-4H-3,4,7-triazadibenzo[cd,f]azulen-5-yl)-N-methylcyclohex-3-ene-1-carboxamide] | 63 | 150
CN1Cc2c(C3=CCC(N4CCC[C@H]4C(=O)O)CC3)[nH]c3nccc(c23)-c2cc(F)ccc21 (stereo partly drawn) [Example 37, 1-[4-(10-fluoro-7-methyl-6,7-dihydro-4H-3,4,7-triazadibenzo[cd,f]azulen-5-yl)cyclohex-3-en-1-yl]-L-proline] | 160 | 290
CN1Cc2c(C3=CCN([C@H]4CC[C@H](C(=O)O)CC4)CC3)[nH]c3nccc(c23)-c2cc(F)c(F)cc21 [Example 150, trans-4-[4-(9,10-difluoro-7-methyl-6,7-dihydro-4H-3,4,7-triazadibenzo[cd,f]azulen-5-yl)-3,6-dihydropyridin-1(2H)-yl]cyclohexanecarboxylic acid] | 57 | 28
CN(CCO)C(=O)CN1CCC(c2[nH]c3nccc4c3c2CN(C)c2ccc(F)cc2-4)CC1 [Example 27, 2-[4-(10-fluoro-7-methyl-6,7-dihydro-4H-3,4,7-triazadibenzo[cd,f]azulen-5-yl)piperidin-1-yl]-N-(2-hydroxyethyl)-N-methylacetamide] | 91 | 210
CN(CCO)C(=O)CN1CC=C(c2[nH]c3nccc4c3c2CN(C)c2ccc(F)cc2-4)C(C)(C)C1 [Example 116, 2-[4-(10-fluoro-7-methyl-6,7-dihydro-4H-3,4,7-triazadibenzo[cd,f]azulen-5-yl)-3,3-dimethyl-3,6-dihydropyridin-1(2H)-yl]-N-(2-hydroxyethyl)-N-methylacetamide] | 890 | 1700
CN1Cc2c(C3=CCN(CC(=O)N(C)C4CC(O)C4)CC3(C)C)[nH]c3nccc(c23)-c2cc(F)ccc21 (stereo not shown) [Example 118, 2-[4-(10-fluoro-7-methyl-6,7-dihydro-4H-3,4,7-triazadibenzo[cd,f]azulen-5-yl)-3,3-dimethyl-3,6-dihydropyridin-1(2H)-yl]-N-(3-hydroxycyclobutyl)-N-methylacetamide] | 1200 | 2600
CN1Cc2c(C3=CCN(C4CC(C(=O)O)C4)CC3)[nH]c3ncc(F)c(c23)-c2cc(F)ccc21 (stereo not shown) [Example 193, 3-[4-(1,10-difluoro-7-methyl-6,7-dihydro-4H-3,4,7-triazadibenzo[cd,f]azulen-5-yl)-3,6-dihydropyridin-1(2H)-yl]cyclobutanecarboxylic acid] | 76 | 11
CN1Cc2c(C3=CCCN(CC(=O)N4CCC[C@H]4CO)C3)[nH]c3nccc(c23)-c2cc(F)ccc21 [Example 120, 2-[5-(10-fluoro-7-methyl-6,7-dihydro-4H-3,4,7-triazadibenzo[cd,f]azulen-5-yl)-3,6-dihydropyridin-1(2H)-yl]-1-[(2S)-2-(hydroxymethyl)pyrrolidin-1-yl]ethanone] | 480 | 2100
CN1Cc2c(C3=CCC(C(=O)O)CC3)[nH]c3nccc(c23)-c2cc(F)ccc21 (stereo not shown) [Example 41, 4-(10-fluoro-7-methyl-6,7-dihydro-4H-3,4,7-triazadibenzo[cd,f]azulen-5-yl)cyclohex-3-ene-1-carboxylic acid] | 150 | 1100
CN1Cc2c(C3=C[C@H]4CC[C@@H](C3)N4CC(=O)N(C)C3CC(O)C3)[nH]c3nccc(c23)-c2cc(F)ccc21 (stereo partly drawn) [Example 98, 2-[(1R,5S)-3-(10-fluoro-7-methyl-6,7-dihydro-4H-3,4,7-triazadibenzo[cd,f]azulen-5-yl)-8-azabicyclo[3.2.1]oct-2-en-8-yl]-N-(3-hydroxycyclobutyl)-N-methylacetamide] | 73 | 150
CN1Cc2c(-c3ccc(S(C)(=O)=O)cc3)[nH]c3nccc(c23)-c2cc(F)ccc21 [Example 43, 10-fluoro-7-methyl-5-[4-(methylsulfonyl)phenyl]-6,7-dihydro-4H-3,4,7-triazadibenzo[cd,f]azulene] | 66 | 230
CN1Cc2c(C3=C[C@H]4CC[C@@H](C3)N4CC(=O)O)[nH]c3nccc(c23)-c2cc(F)ccc21 [Example 58, [(1R,5S)-3-(10-fluoro-7-methyl-6,7-dihydro-4H-3,4,7-triazadibenzo[cd,f]azulen-5-yl)-8-azabicyclo[3.2.1]oct-2-en-8-yl]acetic acid] | 170 | 1400
CCOC(=O)NS(=O)(=O)N1CC=C(c2[nH]c3nccc4c3c2CN(C)c2ccc(F)cc2-4)CC1 [Example 3, ethyl{[4-(10-fluoro-7-methyl-6,7-dihydro-4H-3,4,7-triazadibenzo[cd,f]azulen-5-yl)-3,6-dihydropyridin-1(2H)-yl]sulfonyl}carbamate] | 47 | 590
CN(C)C(=O)CN1[C@H]2CC[C@@H]1C=C(c1[nH]c3nccc4c3c1CN(C)c1ccc(F)cc1-4)C2 [Example 55, 2-[(1R,5S)-3-(10-fluoro-7-methyl-6,7-dihydro-4H-3,4,7-triazadibenzo[cd,f]azulen-5-yl)-8-azabicyclo[3.2.1]oct-2-en-8-yl]-N,N-dimethylacetamide] | 160 | 150
CN1Cc2c(C3=CC4CN(CC(=O)N5CC(O)C5)CC4C3)[nH]c3nccc(c23)-c2cc(F)ccc21 (stereo not shown) [Example 84, 2-[5-(10-fluoro-7-methyl-6,7-dihydro-4H-3,4,7-triazadibenzo[cd,f]azulen-5-yl)-3,3a,4,6a-tetrahydrocyclopenta[c]pyrrol-2(1H)-yl]-1-(3-hydroxyazetidin-1-yl)ethanone] | 94 | 180
CNC(=O)N1CCC=C(c2[nH]c3nccc4c3c2CN(C)c2ccc(F)cc2-4)C1 [Example 96, 5-(10-fluoro-7-methyl-6,7-dihydro-4H-3,4,7-triazadibenzo[cd,f]azulen-5-yl)-N-methyl-3,6-dihydropyridine-1(2H)-carboxamide] | 180 | 680
CN1Cc2c(C3=C[C@H]4CC[C@@H](C3)N4S(C)(=O)=O)[nH]c3nccc(c23)-c2cc(F)ccc21 [Example 56, 10-fluoro-7-methyl-5-[(1R,5S)-8-(methylsulfonyl)-8-azabicyclo[3.2.1]oct-2-en-3-yl]-6,7-dihydro-4H-3,4,7-triazadibenzo[cd,f]azulene] | 96 | 680
CN1Cc2c(C3=CCN([C@H]4CC[C@@H](CC(=O)O)CC4)CC3)[nH]c3ncc(F)c(c23)-c2ccccc21 [Example 182, {cis-4-[4-(1-fluoro-7-methyl-6,7-dihydro-4H-3,4,7-triazadibenzo[cd,f]azulen-5-yl)-3,6-dihydropyridin-1(2H)-yl]cyclohexyl}acetic acid] | 71 | 10
CN1Cc2c(C3=CCN(CC(=O)N4CCC[C@H]4CO)CC3(C)C)[nH]c3nccc(c23)-c2cc(F)ccc21 [Example 115, 2-[4-(10-fluoro-7-methyl-6,7-dihydro-4H-3,4,7-triazadibenzo[cd,f]azulen-5-yl)-3,3-dimethyl-3,6-dihydropyridin-1(2H)-yl]-1-[(2S)-2-(hydroxymethyl)pyrrolidin-1-yl]ethanone] | 950 | 2600
CN1Cc2c(C3=CC4CCCC(C3)N4S(C)(=O)=O)[nH]c3nccc(c23)-c2cc(F)ccc21 (stereo not shown) [Example 99, 10-fluoro-7-methyl-5-[9-(methylsulfonyl)-9-azabicyclo[3.3.1]non-2-en-3-yl]-6,7-dihydro-4H-3,4,7-triazadibenzo[cd,f]azulene] | 400 | 2600
CCOC(=O)C1c2c(C3=CCNCC3)[nH]c3nccc(c23)-c2cc(F)ccc2N1C (stereo not shown) [Example 28, ethyl 10-fluoro-7-methyl-5-(1,2,3,6-tetrahydropyridin-4-yl)-6,7-dihydro-4H-3,4,7-triazadibenzo[cd,f]azulene-6-carboxylate] | 150 | 25
CN1Cc2c(C3=CCCNCC3)[nH]c3nccc(c23)-c2cc(F)ccc21 [Example 87, 10-fluoro-7-methyl-5-(2,3,6,7-tetrahydro-1H-azepin-4-yl)-6,7-dihydro-4H-3,4,7-triazadibenzo[cd,f]azulene] | 90 | 100
CN(CC(O)CO)C(=O)CN1CC=C(c2[nH]c3ncc(F)c4c3c2CN(C)c2ccc(F)cc2-4)CC1 (stereo not shown) [Example 110, 2-[4-(1,10-difluoro-7-methyl-6,7-dihydro-4H-3,4,7-triazadibenzo[cd,f]azulen-5-yl)-3,6-dihydropyridin-1(2H)-yl]-N-(2,3-dihydroxypropyl)-N-methylacetamide] | 45 | 14

Source: US9328112B2, “Tetracyclic CDK9 kinase inhibitors” (AbbVie Inc., priority 2014, dated 2016)
